Measured values: patent US10906915B2, “Substituted pyrazoloazepin-4-ones and their use as phosphodiesterase inhibitors” (LEO Pharma A/S, priority 2016, dated 2021)

target: human PDE4D catalytic domain (UniProt no. Q08499) (Homo sapiens (Human), UniProt Q08499); test: PDE4 assay (TR-FRET, FAM-cAMP cleavage); assay type: biochemical; settings: human PDE4D catalytic domain; molar concentration giving 50% inhibition of substrate cleavage; read-out: PDE4 IC50 range
Method in brief: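 PDE4D catalytic domain ([…]) was incubated with unlabelled cAMP plus FAM-cAMP and titrated compound, stopped with binding buffer of metal-ion nanoparticles and Tb donor. AMP generation read by TR-FRET; IC50 as 50% inhibition of cleavage versus controls, reported as nM ranges.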

human PDE4D catalytic domain, sequence (Q08499 380-740 limits assumed): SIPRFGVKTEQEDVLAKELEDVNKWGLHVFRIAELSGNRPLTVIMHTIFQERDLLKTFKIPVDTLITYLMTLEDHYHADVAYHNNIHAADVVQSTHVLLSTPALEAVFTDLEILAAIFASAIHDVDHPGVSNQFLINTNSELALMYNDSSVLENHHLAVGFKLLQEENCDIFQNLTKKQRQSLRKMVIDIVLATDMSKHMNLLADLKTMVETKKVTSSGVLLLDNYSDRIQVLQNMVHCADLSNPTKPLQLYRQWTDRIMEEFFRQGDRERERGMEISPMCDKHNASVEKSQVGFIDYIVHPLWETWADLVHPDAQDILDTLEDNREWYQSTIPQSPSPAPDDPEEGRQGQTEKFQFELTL

SMILES	IC50 [nM]
CCc1nn(CCCOC(=O)c2ccc(OC)c(C(F)(F)F)c2)c2c1C(=O)NCC1(CCOCC1)C2 [Example 118, 3-(3-ethyl-4-oxo-spiro[6,8-dihydro-5H-pyrazolo[4,3-c]azepine-7,4′-tetrahydropyran]-1-yl)propyI 4-methoxy-3-(trifluoromethyl)benzoate]	< 100
CCc1nn(CCCOC(=O)c2cc(OC)ccc2C(F)(F)F)c2c1C(=O)NCC1(CCOCC1)C2 [Example 119, 3-(3-ethyl-4-oxo-spiro[6,8-dihydro-5H-pyrazolo[4,3-c]azepine-7,4′-tetrahydropyran]-1-yl)propyl 5-methoxy-2-(trifluoromethyl)benzoate]	< 100
CCc1nn(CCCOC(=O)c2cc(OC)cc(C(F)(F)F)c2)c2c1C(=O)NCC1(CCOCC1)C2 [Example 120, 3-(3-ethyl-4-oxo-spiro[6,8-dihydro-5H-pyrazolo[4,3-c]azepine-7,4′-tetrahydropyran]-1-yl)propyl 3-methoxy-5-(trifluoromethyl)benzoate]	< 100
CCc1nn(CCCOC(=O)c2ccc(Cl)cc2C(F)(F)F)c2c1C(=O)NCC1(CCOCC1)C2 [Example 121, 3-(3-ethyl-4-oxo-spiro[6,8-dihydro-5H-pyrazolo[4,3-c]azepine-7,4′-tetrahydropyran]-1-yl)propyl 4-chloro-2-(trifluoromethyl)benzoate]	< 100
CCc1nn(CCCOC(=O)c2ccc(Cl)c(C(F)(F)F)c2)c2c1C(=O)NCC1(CCOCC1)C2 [Example 122, 3-(3-ethyl-4-oxo-spiro[6,8-dihydro-5H-pyrazolo[4,3-c]azepine-7,4′-tetrahydropyran]-1-yl)propyl 4-chloro-3-(trifluoromethyl)benzoate]	< 100
CCc1nn(CCCOC(=O)c2cccc(C(F)(F)F)c2Cl)c2c1C(=O)NCC1(CCOCC1)C2 [Example 123, 3-(3-ethyl-4-oxo-spiro[6,8-dihydro-5H-pyrazolo[4,3-c]azepine-7,4′-tetrahydropyran]-1-yl)propyl 2-chloro-3-(trifluoromethyl)benzoate]	< 100
CCc1nn(CCCOC(=O)c2cc(Cl)ccc2C(F)(F)F)c2c1C(=O)NCC1(CCOCC1)C2 [Example 124, 3-(3-ethyl-4-oxo-spiro[6,8-dihydro-5H-pyrazolo[4,3-c]azepine-7,4′-tetrahydropyran]-1-yl)propyl 5-chloro-2-(trifluoromethyl)benzoate]	< 100
CCc1nn(CCCOC(=O)c2ccc(C(F)(F)F)c(Cl)c2)c2c1C(=O)NCC1(CCOCC1)C2 [Example 125, 3-(3-ethyl-4-oxo-spiro[6,8-dihydro-5H-pyrazolo[4,3-c]azepine-7,4′-tetrahydropyran]-1-yl)propyl 3-chloro-4-(trifluoromethyl)benzoate]	< 100
CCc1nn(CCCOC(=O)c2ccc(C(F)(F)F)cc2Cl)c2c1C(=O)NCC1(CCOCC1)C2 [Example 126, 3-(3-ethyl-4-oxo-spiro[6,8-dihydro-5H-pyrazolo[4,3-c]azepine-7,4′-tetrahydropyran]-1-yl)propyl 2-chloro-4-(trifluoromethyl)benzoate]	< 100
CCc1nn(CCCOC(=O)c2cc(Cl)cc(C(F)(F)F)c2)c2c1C(=O)NCC1(CCOCC1)C2 [Example 127, 3-(3-ethyl-4-oxo-spiro[6,8-dihydro-5H-pyrazolo[4,3-c]azepine-7,4′-tetrahydropyran]-1-yl)propyl 3-chloro-5-(trifluoromethyl)benzoate]	< 100
CCc1nn(CCCOC(=O)c2cc(C(F)(F)F)ccc2Cl)c2c1C(=O)NCC1(CCOCC1)C2 [Example 128, 3-(3-ethyl-4-oxo-spiro[6,8-dihydro-5H-pyrazolo[4,3-c]azepine-7,4′-tetrahydropyran]-1-yl)propyl 2-chloro-5-(trifluoromethyl)benzoate]	< 100
CCc1nn(CCCOC(=O)c2cccc(S(=O)(=O)C(C)C)c2)c2c1C(=O)NCC1(CCOCC1)C2 [Example 129, 3-(3-ethyl-4-oxo-spiro[6,8-dihydro-5H-pyrazolo[4,3-c]azepine-7,4′-tetrahydropyran]-1-yl)propyl 3-isopropylsulfonylbenzoate]	< 100
CCc1nn(CCCOC(=O)c2ccc(S(=O)(=O)C(C)C)cc2)c2c1C(=O)NCC1(CCOCC1)C2 [Example 130, 3-(3-ethyl-4-oxo-spiro[6,8-dihydro-5H-pyrazolo[4,3-c]azepine-7,4′-tetrahydropyran]-1-yl)propyl 4-isopropylsulfonylbenzoate]	< 100
CCc1nn(CCCOC(=O)c2ccc(S(=O)(=O)N(C)C)cc2)c2c1C(=O)NCC1(CCOCC1)C2 [Example 131, 3-(3-ethyl-4-oxo-spiro[6,8-dihydro-5H-pyrazolo[4,3-c]azepine-7,4′-tetrahydropyran]-1-yl)propyl 4-(dimethylsulfamoyl) benzoate]	< 100
CCc1nn(CCCOC(=O)c2ccc(S(=O)(=O)C3CCCC3)cc2)c2c1C(=O)NCC1(CCOCC1)C2 [Example 132, 3-(3-ethyl-4-oxo-spiro[6,8-dihydro-5H-pyrazolo[4,3-c]azepine-7,4′-tetrahydropyran]-1-yl)propyl 4-cyclopentylsulfonyl-benzoate]	100 to 500
CCc1nn(CCCOC(=O)c2ccc(C(F)(F)F)cc2C(F)(F)F)c2c1C(=O)NCC1(CCOCC1)C2 [Example 135, 3-(3-ethyl-4-oxo-spiro[6,8-dihydro-5H-pyrazolo[4,3-c]azepine-7,4′-tetrahydropyran]-1-yl)propyl 2,4-bis(trifluoromethyl) benzoate]	< 100
CCc1nn(CCCOC(=O)c2ccc(C(F)(F)F)c(C(F)(F)F)c2)c2c1C(=O)NCC1(CCOCC1)C2 [Example 136, 3-(3-ethyl-4-oxo-spiro[6,8-dihydro-5H-pyrazolo[4,3-c]azepine-7,4′-tetrahydropyran]-1-yl)propyl 3,4-bis(trifluoromethyl) benzoate]	< 100
CCc1nn(CCCOC(=O)c2ccc(C(N)=O)cc2)c2c1C(=O)NCC1(CCOCC1)C2 [Example 140, 3-(3-ethyl-4-oxo-spiro[6,8-dihydro-5H-pyrazolo[4,3-c]azepine-7,4′-tetrahydropyran]-1-yl)propyl 4-carbamoylbenzoate]	< 100
CCc1nn(CCCOC(=O)c2ccc(C(=O)NC)cc2)c2c1C(=O)NCC1(CCOCC1)C2 [Example 141, 3-(3-ethyl-4-oxo-spiro[6,8-dihydro-5H-pyrazolo[4,3-c]azepine-7,4′-tetrahydropyran]-1-yl)propyl 4-(methylcarbamoyl)benzoate]	< 100
CCNC(=O)c1ccc(C(=O)OCCCn2nc(CC)c3c2CC2(CCOCC2)CNC3=O)cc1 [Example 142, 3-(3-ethyl-4-oxo-spiro[6,8-dihydro-5H-pyrazolo[4,3-c]azepine-7,4′-tetrahydropyran]-1-yl)propyl 4-(ethylcarbamoyl)benzoate]	< 100
CCc1nn(CCCOC(=O)c2ccc(C(=O)N(C)C)cc2)c2c1C(=O)NCC1(CCOCC1)C2 [Example 143, 3-(3-ethyl-4-oxo-spiro[6,8-dihydro-5H-pyrazolo[4,3-c]azepine-7,4′-tetrahydropyran]-1-yl)propyl 4-(dimethylcarbamoyl)-benzoate]	100 to 500
CCc1nn(CCCOC(=O)c2ccc(C(=O)NC(C)C)cc2)c2c1C(=O)NCC1(CCOCC1)C2 [Example 144, 3-(3-ethyl-4-oxo-spiro[6,8-dihydro-5H-pyrazolo[4,3-c]azepine-7,4′-tetrahydropyran]-1-yl)propyl 4-(isopropylcarbamoyl)-benzoate]	< 100
